# Where no end group is shown, it is not given here.
# What was measured:
# [1] = system: human embryo fibroblast (FSF); assay: MTT viability of normal human embryo fibroblast (FSF) cells; conditions: peptide 10-200 μg/ml, 4 days, FIG. 1
# Protocol: (§2) In order to test toxicity of the synthesized NKC and NRC peptides on normal cells, each of the cultured human embryo fibroblast (FSF), human keratinocyte (HaCat) and human erythrocyte was treated with the synthesized peptide, and the viability of each cell was analyzed.
# (§3) In detail, each 1×10^4 of FSF and HaCat cells was aliquoted to a 96-well plate, and cultured for 24 hrs. Subsequently, each of the synthesized peptides, a known anticancer peptide, buforin IIb, and a known non-cytotoxic peptide, magainin 2 was added thereto at a concentration of 10, 25, 50, 100 or 200 μg/ml, and then the cells were cultured for 4 days. Thereafter, MTT (3-[4,5-dimethylthiazol-2-yl]-2,5-diphenyltetrazolium bromide) was added, and color development was detected using a spectrophotometer to count the number of surviving cells. On the basis of this, viability of each cell was calculated (FIGS. 1 and 1b). In this connection, an experimental group treated with PBS only was used as a control group.
# human erythrocyte = assay: Disruption of human erythrocytes (absorbance); conditions: peptide 10-200 μg/ml, 30 min, FIG. 3
# Protocol: as §2
# Meanwhile, PBS was added to erythrocytes obtained from the human blood, and diluted 1,000-fold. Each of the synthesized peptides, a known anticancer peptide, buforin IIb, and a known non-cytotoxic peptide, magainin 2 was added thereto at a concentration of 10, 25, 50, 100 or 200 μg/ml. After 30 min, disruption of erythrocytes was determined by the difference in absorbance using spectrometry (FIG. 3). In this connection, an experimental group treated with PBS only was used as a control group.
# [2] = system: human keratinocyte (HaCat); assay: MTT viability of normal human keratinocyte (HaCat) cells; conditions: peptide 10-200 μg/ml, 4 days, FIG. 2
# Protocol: as §2, §3
# K-562 cancer cell line [3] = assay: Competitive binding assay with ganglioside, phosphatidylserine or heparin (MTT viability); assay type: cell-based, human; conditions: peptide 10 μg/ml, 48 hrs
# Description: Accordingly, the present inventors assumed that external addition of ganglioside, phosphatidylserine, and heparin to the cancer cell culture media causes dispersion of the peptides of the present invention in the cancer cell surface and the negatively charged materials added to the culture media, whereby the anticancer activity is reduced by the addition of negatively charged materials in a concentration-dependent manner.
# In detail, the K-562 cancer cell line was aliquoted to each well of 96-well plate at a density of 1×10^4, and each well was treated with 1 to 100 μg/ml of heparin, phosphatidylserine or ganglioside, and 10 μg/ml of the peptides of the present invention, buforin IIb and magainin 2, followed by cultivation for 48 hrs. Cell viability was measured in the same manner as in Example 1 (MTT assay) (FIGS. 13 to 15).
# normal HaCat cells = assay: Fluorescence microscopy of FITC-labeled peptide, HaCat cells; assay type: cell-based, human; conditions: 20 μg/ml, 1 hr, fluorescence microscope, FIG. 10
# Protocol: (§1) To reconfirm the cell selectivity of the peptides of the present invention, each 2×10^5 of normal FSF and HaCat cells, and SM-MEL-5 cell line, HeLa cell line and HCT-116 cell line as cancer cells were cultured at 37° C. overnight, and FITC (fluorescein isothiocyanate)-labeled peptides, buforin IIB and magainin 2 were added thereto at a concentration of 20 μg/ml, followed by incubation for 1 hr. Each cell or cell line was washed with PBS, and observed under a fluorescence microscope (FIG. 10).
# HCT-116 cell line = assay: Fluorescence microscopy of FITC-labeled peptide, HCT-116 cell line; assay type: cell-based, human; conditions: 20 μg/ml, 1 hr, fluorescence microscope, FIG. 10
# Protocol: as §1
# SM-MEL-5 cell line = assay: Fluorescence microscopy of FITC-labeled peptide, SM-MEL-5 cell line; assay type: cell-based, human; conditions: 20 μg/ml, 1 hr, fluorescence microscope, FIG. 10
# Protocol: as §1
# HeLa cell line = assay: Fluorescence microscopy of FITC-labeled peptide, HeLa cell line; assay type: cell-based, human; conditions: 20 μg/ml, 1 hr, fluorescence microscope, FIG. 10
# Protocol: as §1
# K-562 cancer cell line [4] = assay: Anticancer activity on cancer cells lacking ganglioside (PMPP, MTT viability); assay type: cell-based, human; conditions: peptide 10 μg/ml, PMPP 0, 2 and 4 μM, 48 hrs, FIG. 16
# Protocol: In detail, the K-562 cancer cell line was aliquoted to each well of 96-well plate at a density of 1×10^4, and each well was treated with an inhibitor of ganglioside biosynthesis, PMPP at the concentration of 0, 2 and 4 μM, and then treated with 10 μg/ml of the peptides of the present invention, buforin IIb and magainin 2, followed by cultivation for 48 hrs. Cell viability was measured in the same manner as in Example 1 (MTT assay) (FIG. 16).
# normal FSF cells = assay: Fluorescence microscopy of FITC-labeled peptide, FSF cells; assay type: cell-based, human; conditions: 20 μg/ml, 1 hr, fluorescence microscope, FIG. 10
# Protocol: as §1
Substance,viability of FSF cells (toxicity on normal cells) [1],viability of erythrocytes (toxicity on normal cells) (human erythrocyte),viability of HaCat cells (toxicity on normal cells) [2],"cell viability with external addition of ganglioside (K-562 cancer cell line [3]; ganglioside 1 to 100 μg/ml, FIG. 13)","cell viability with external addition of heparin (K-562 cancer cell line [3]; heparin 1 to 100 μg/ml, FIG. 15)","cell viability with external addition of phosphatidylserine (K-562 cancer cell line [3]; phosphatidylserine 1 to 100 μg/ml, FIG. 14)",detection of FITC-labeled peptide in normal HaCat cells (normal HaCat cells),detection of FITC-labeled peptide in HCT-116 cell line (HCT-116 cell line),detection of FITC-labeled peptide in SM-MEL-5 cell line (SM-MEL-5 cell line),detection of FITC-labeled peptide in HeLa cell line (HeLa cell line),viability of cancer cells with increasing concentration of inhibitor of ganglioside biosynthesis (K-562 cancer cell line [4]),detection of FITC-labeled peptide in normal FSF cells (normal FSF cells)
"APKAMKLLKKLLKLQKKGI-NH2 [NKC, APKAMKLLKKLLKLQKKGI-amine]",little toxicity,little toxicity,little toxicity,,,,,,,,,
"APKAMRLLRRLLRLQKKGI-NH2 [NRC, APKAMRLLRRLLRLQKKGI-amide]",little toxicity,little toxicity,little toxicity,,,,,,,,,
buforin IIb,,,,high cell viability,high cell viability,high cell viability,at a predetermined level,in a large quantity,in a large quantity,in a large quantity,increased,rarely detected
magainin 2,,,,,,,not detected,not detected,not detected,not detected,,not detected
